According to ChEMBL document CHEMBL4665675 (J Med Chem, 2020):
pIC50: −log10 of the molar value.

Columns and labels:
CCRF-CEM = assay: Cytotoxicity against human CEM cells incubated for 48 to 72 hrs by Cell Titer 96 aqueous one solution cell proliferation assay; assay type: functional, cell-based
BALB/3T3 = assay: Cytotoxicity against mouse BALB/3T3 cells incubated for 72 hrs by sulforhodamine B assay; assay type: cell-based; details: BALB/3T3, 72 h
[1] = Antiproliferative activity against human ALL5 cells incubated for 120 hrs by MTT assay; assay type: functional, cell-based; details: ALL5, 120 h
MCF7 [2] = assay: Antiproliferative activity against human MCF7 cells incubated for 72 hrs by sulforhodamine B assay; assay type: functional, cell-based; details: MCF7, 72 h
A549 [3] = assay: Antiproliferative activity against human A549 cells incubated for 72 hrs by sulforhodamine B assay; assay type: functional, cell-based; details: A549, 72 h
LoVo = assay: Antiproliferative activity against human LoVo cells incubated for 72 hrs by sulforhodamine B assay; assay type: functional, cell-based
[4] = Antiproliferative activity against human LoVo/DX cells incubated for 72 hrs by sulforhodamine B assay; assay type: functional, cell-based
P388 = assay: Antiproliferative activity against mouse P388 cells incubated for 72 hrs by Coulter counter method; assay type: functional, cell-based; details: P388, 72 h
Bel-7402 = assay: Cytotoxicity against human BEL7402 cells; assay type: functional, cell-based
A549 [5] = assay: Cytotoxicity against human A549 cells; assay type: functional, cell-based
MCF7 [6] = assay: Cytotoxicity against human MCF7 cells; assay type: functional, cell-based
A2780 = assay: Cytotoxicity against human A2780 cells; assay type: functional, cell-based
HeLa = assay: Cytotoxicity against human HeLa cells after 24 to 72 hrs by Cell Titer Blue assay; assay type: cell-based

CCCOc1c(OC)c(OC)cc2c1-c1ccc(OC)c(=O)cc1[C@@H](NC(C)=O)CC2
pIC50 (CCRF-CEM): 7.92

COc1c(Cl)c2c(c(OC)c1OC)-c1ccc(SC)c(=O)cc1[C@@H](NC(=O)C(C)C)CC2
pIC50 (BALB/3T3): 8.70 | pIC50 [1]: 8.70 | pIC50 (MCF7 [2]): 8.70 | pIC50 (A549 [3]): 8.70 | pIC50 (LoVo): 8.70 | pIC50 [4]: 8.70

CCC(=O)Oc1c(OC)c(OC)cc2c1-c1ccc(OC)c(=O)cc1[C@@H](NC(C)=O)CC2
pIC50 (CCRF-CEM): 7.92

COc1c(I)c2c(c(OC)c1OC)-c1ccc(SC)c(=O)cc1[C@@H](NC(C)=O)CC2
pIC50 (BALB/3T3): 6.94 | pIC50 (MCF7 [2]): 7.77 | pIC50 (A549 [3]): 7.96 | pIC50 (LoVo): 8.15 | pIC50 [4]: 6.19

COc1cc2c(c(OCc3ccccc3Cl)c1OC)-c1ccc(OC)c(=O)cc1[C@@H](NC(C)=O)CC2
pIC50 (CCRF-CEM): 7.92

COc1c(Cl)c2c(c(OC)c1OC)-c1ccc(SC)c(=O)cc1[C@@H](NC(=O)OCC(F)(F)F)CC2
pIC50 (BALB/3T3): 8.15 | pIC50 (MCF7 [2]): 8.15 | pIC50 (A549 [3]): 8.15 | pIC50 (LoVo): 8.15 | pIC50 [4]: 8.15

COc1cc2c(c(OC)c1OC)-c1ccc(NCCCN(C)C)c(=O)cc1[C@@H](NC(C)=O)CC2
pIC50 (P388): < 5.00

COc1cccc2c1C(=O)c1c(O)c3c(c(O)c1C2=O)C[C@@](O)(C(=O)CO)C[C@@H]3O[C@H]1C[C@H](N)[C@H](O)[C@H](C)O1 [DOXORUBICIN]
pIC50 (BALB/3T3): 7.04 | pIC50 (A549 [3]): 7.04 | pIC50 [4]: 7.04

CCCCOC(=O)N[C@H]1CCc2c(Cl)c(OC)c(OC)c(OC)c2-c2ccc(SC)c(=O)cc21
pIC50 (BALB/3T3): 7.70 | pIC50 (MCF7 [2]): 7.70 | pIC50 (A549 [3]): 7.70 | pIC50 (LoVo): 7.70 | pIC50 [4]: 7.70

C=COc1c(OC)c(OC)cc2c1-c1ccc(OC)c(=O)cc1[C@@H](NC(C)=O)CC2
pIC50 (CCRF-CEM): 7.92

COc1cc2c(c(OC)c1OC)-c1ccc(NCCOC(=O)CCC(=O)Oc3ccc(CO[N+](=O)[O-])cc3)c(=O)cc1[C@@H](NC(C)=O)CC2
pIC50 (Bel-7402): 7.77 | pIC50 (A549 [5]): 7.77 | pIC50 (MCF7 [6]): 7.77 | pIC50 (A2780): 7.70

COc1c(Cl)c2c(c(OC)c1OC)-c1ccc(SC)c(=O)cc1[C@@H](N)CC2
pIC50 (BALB/3T3): 7.01 | pIC50 (MCF7 [2]): 7.01 | pIC50 (A549 [3]): 7.01 | pIC50 (LoVo): 7.01 | pIC50 [4]: 7.01

COc1cc2c(c(OC)c1OC)-c1ccc(NCC(C)C)c(=O)cc1[C@@H](NC(C)=O)CC2
pIC50 (P388): 6.49

COc1c(Cl)c2c(c(OC)c1OC)-c1ccc(SC)c(=O)cc1[C@@H](NC(=O)OCCO)CC2
pIC50 (BALB/3T3): 7.40 | pIC50 (MCF7 [2]): 7.40 | pIC50 (A549 [3]): 7.40 | pIC50 (LoVo): 7.40 | pIC50 [4]: 7.40

COc1cc2c(c(OCc3ccc(Cl)cc3)c1OC)-c1ccc(OC)c(=O)cc1[C@@H](NC(C)=O)CC2
pIC50 (CCRF-CEM): 7.92

COc1c(Cl)c2c(c(OC)c1OC)-c1ccc(SC)c(=O)cc1[C@@H](NC(=O)CCCCl)CC2
pIC50 (BALB/3T3): 8.00 | pIC50 [1]: 8.00 | pIC50 (MCF7 [2]): 8.00 | pIC50 (A549 [3]): 8.00 | pIC50 (LoVo): 8.00 | pIC50 [4]: 8.00

COc1cc2c(c(OC)c1OC)-c1ccc(NCCOC(=O)CCC(=O)OCCCCCO[N+](=O)[O-])c(=O)cc1[C@@H](NC(C)=O)CC2
pIC50 (Bel-7402): 7.40 | pIC50 (A549 [5]): 7.40 | pIC50 (MCF7 [6]): 7.40 | pIC50 (A2780): 7.70

COc1c(F)c2c(c(OC)c1OC)-c1ccc(SC)c(=O)cc1[C@@H](NC(C)=O)CC2
pIC50 (BALB/3T3): 6.94 | pIC50 (MCF7 [2]): 8.00 | pIC50 (A549 [3]): 7.96 | pIC50 (LoVo): 7.68 | pIC50 [4]: 6.40

CCCCNc1ccc2c(cc1=O)[C@@H](NC(C)=O)CCc1cc(OC)c(OC)c(OC)c1-2
pIC50 (P388): 6.62

COc1cc2c(c(OC)c1OC)-c1ccc(NCCOC(=O)CCC(=O)OCCCCO[N+](=O)[O-])c(=O)cc1[C@@H](NC(C)=O)CC2
pIC50 (Bel-7402): 7.40 | pIC50 (A549 [5]): 7.40 | pIC50 (MCF7 [6]): 7.40 | pIC50 (A2780): 7.70

COc1c(Cl)c2c(c(OC)c1OC)-c1ccc(SC)c(=O)cc1[C@@H](NC(=O)c1ccccc1)CC2
pIC50 (BALB/3T3): 8.15 | pIC50 [1]: 8.15 | pIC50 (MCF7 [2]): 8.15 | pIC50 (A549 [3]): 8.15 | pIC50 (LoVo): 8.15 | pIC50 [4]: 8.15

COc1cc2c(c(OC)c1OC)-c1ccc(NCCOC(=O)CCC(=O)Oc3cccc(CO[N+](=O)[O-])c3)c(=O)cc1[C@@H](NC(C)=O)CC2
pIC50 (Bel-7402): 7.77 | pIC50 (A549 [5]): 7.77 | pIC50 (MCF7 [6]): 7.77 | pIC50 (A2780): 7.70

COc1cc2c(c(O)c1OC)-c1ccc(OC)c(=O)cc1[C@@H](NC(C)=O)CC2
pIC50 (CCRF-CEM): 7.82

COc1c(Cl)c2c(c(OC)c1OC)-c1ccc(SC)c(=O)cc1[C@@H](NC(=O)OCCOCCO)CC2
pIC50 (BALB/3T3): 7.03 | pIC50 (MCF7 [2]): 7.03 | pIC50 (A549 [3]): 7.03 | pIC50 (LoVo): 7.03 | pIC50 [4]: 7.03

COc1cc2c(c(OC)c1OC)-c1ccc(NN(C)C)c(=O)cc1[C@@H](NC(C)=O)CC2
pIC50 (P388): 7.60

COCCOc1c(OC)c(OC)cc2c1-c1ccc(OC)c(=O)cc1[C@@H](NC(C)=O)CC2
pIC50 (CCRF-CEM): 7.92

COc1cc2c(c(OC)c1OC)-c1ccc(NC(C)C)c(=O)cc1[C@@H](NC(C)=O)CC2
pIC50 (P388): 7.32

CCOC(=O)N[C@H]1CCc2c(Cl)c(OC)c(OC)c(OC)c2-c2ccc(SC)c(=O)cc21
pIC50 (BALB/3T3): 8.10 | pIC50 (MCF7 [2]): 8.10 | pIC50 (A549 [3]): 8.10 | pIC50 (LoVo): 8.10 | pIC50 [4]: 8.10

COc1cc2c(c(OCc3cccc(Cl)c3)c1OC)-c1ccc(OC)c(=O)cc1[C@@H](NC(C)=O)CC2
pIC50 (CCRF-CEM): 7.92

CCCNc1ccc2c(cc1=O)[C@@H](NC(C)=O)CCc1cc(OC)c(OC)c(OC)c1-2
pIC50 (P388): 7.44

COc1c(Cl)c2c(c(OC)c1OC)-c1ccc(SC)c(=O)cc1[C@@H](NC(=O)OC(C)C)CC2
pIC50 (BALB/3T3): 7.70 | pIC50 (MCF7 [2]): 7.70 | pIC50 (A549 [3]): 7.70 | pIC50 (LoVo): 7.70 | pIC50 [4]: 7.70

COc1cc2c(c(OC(=O)C(C)C)c1OC)-c1ccc(OC)c(=O)cc1[C@@H](NC(C)=O)CC2
pIC50 (CCRF-CEM): 7.92

CCN(CC)C(=O)N[C@H]1CCc2c(Cl)c(OC)c(OC)c(OC)c2-c2ccc(SC)c(=O)cc21
pIC50 (BALB/3T3): 7.57 | pIC50 [1]: 7.57 | pIC50 (MCF7 [2]): 7.57 | pIC50 (A549 [3]): 7.57 | pIC50 (LoVo): 7.57 | pIC50 [4]: 7.57

CCOc1c(OC)c(OC)cc2c1-c1ccc(OC)c(=O)cc1[C@@H](NC(C)=O)CC2
pIC50 (CCRF-CEM): 7.92

CNc1ccc2c(cc1=O)[C@@H](NC(C)=O)CCc1cc(OC)c(OC)c(OC)c1-2
pIC50 (P388): 7.54

CCNc1ccc2c(cc1=O)[C@@H](NC(C)=O)CCc1cc(OC)c(OC)c(OC)c1-2
pIC50 (P388): 7.54

CCCCCCCCCC(=O)N[C@H]1CCc2c(Cl)c(OC)c(OC)c(OC)c2-c2ccc(SC)c(=O)cc21
pIC50 (BALB/3T3): 7.11 | pIC50 [1]: 7.11 | pIC50 (MCF7 [2]): 7.11 | pIC50 (A549 [3]): 7.11 | pIC50 (LoVo): 7.11 | pIC50 [4]: 7.11

CCCOC(=O)N[C@H]1CCc2c(Cl)c(OC)c(OC)c(OC)c2-c2ccc(SC)c(=O)cc21
pIC50 (BALB/3T3): 8.10 | pIC50 (MCF7 [2]): 8.10 | pIC50 (A549 [3]): 8.10 | pIC50 (LoVo): 8.10 | pIC50 [4]: 8.10

COCC(=O)N[C@H]1CCc2c(Cl)c(OC)c(OC)c(OC)c2-c2ccc(SC)c(=O)cc21
pIC50 (BALB/3T3): 8.30 | pIC50 [1]: 8.30 | pIC50 (MCF7 [2]): 8.30 | pIC50 (A549 [3]): 8.30 | pIC50 (LoVo): 8.30 | pIC50 [4]: 8.30

CCC(=O)N[C@H]1CCc2c(Cl)c(OC)c(OC)c(OC)c2-c2ccc(SC)c(=O)cc21
pIC50 (BALB/3T3): 8.70 | pIC50 [1]: 8.70 | pIC50 (MCF7 [2]): 8.70 | pIC50 (A549 [3]): 8.70 | pIC50 (LoVo): 8.70 | pIC50 [4]: 8.70

COc1c(Br)c2c(c(OC)c1OC)-c1ccc(SC)c(=O)cc1[C@@H](NC(C)=O)CC2
pIC50 (LoVo): 7.85 | pIC50 [4]: 6.87

COc1c(Cl)c2c(c(OC)c1OC)-c1ccc(SC)c(=O)cc1[C@@H](NC(C)=O)CC2
pIC50 (BALB/3T3): 7.66 | pIC50 (MCF7 [2]): 7.66 | pIC50 (A549 [3]): 7.66 | pIC50 (LoVo): 7.66 | pIC50 [4]: 6.95

COC(=O)N[C@H]1CCc2c(Cl)c(OC)c(OC)c(OC)c2-c2ccc(SC)c(=O)cc21
pIC50 (BALB/3T3): 7.96 | pIC50 (MCF7 [2]): 7.96 | pIC50 (A549 [3]): 7.96 | pIC50 (LoVo): 7.96 | pIC50 [4]: 7.96

COc1cc2c(c(OC)c1OC)-c1ccc(=N)c(O)cc1[C@@H](NC(C)=O)CC2
pIC50 (HeLa): 8.15
